Experimental data: PMC3472068, “Roles of the different components of magnesium chelatase in abscisic acid signal transduction” (Plant Molecular Biology, 2012)

Target: T1, CHLH (CHLH/ABAR) (Arabidopsis thaliana, UniProt Q9FNB0)
T1 construct: ORF in pFastBac HFT-B, Flag-tagged fusion, expressed in Sf9 insect cells; about 150 kDa; full length 1381 residues; amine-coupled on CM5 chip
T1 sequence (Q9FNB0 1-1381): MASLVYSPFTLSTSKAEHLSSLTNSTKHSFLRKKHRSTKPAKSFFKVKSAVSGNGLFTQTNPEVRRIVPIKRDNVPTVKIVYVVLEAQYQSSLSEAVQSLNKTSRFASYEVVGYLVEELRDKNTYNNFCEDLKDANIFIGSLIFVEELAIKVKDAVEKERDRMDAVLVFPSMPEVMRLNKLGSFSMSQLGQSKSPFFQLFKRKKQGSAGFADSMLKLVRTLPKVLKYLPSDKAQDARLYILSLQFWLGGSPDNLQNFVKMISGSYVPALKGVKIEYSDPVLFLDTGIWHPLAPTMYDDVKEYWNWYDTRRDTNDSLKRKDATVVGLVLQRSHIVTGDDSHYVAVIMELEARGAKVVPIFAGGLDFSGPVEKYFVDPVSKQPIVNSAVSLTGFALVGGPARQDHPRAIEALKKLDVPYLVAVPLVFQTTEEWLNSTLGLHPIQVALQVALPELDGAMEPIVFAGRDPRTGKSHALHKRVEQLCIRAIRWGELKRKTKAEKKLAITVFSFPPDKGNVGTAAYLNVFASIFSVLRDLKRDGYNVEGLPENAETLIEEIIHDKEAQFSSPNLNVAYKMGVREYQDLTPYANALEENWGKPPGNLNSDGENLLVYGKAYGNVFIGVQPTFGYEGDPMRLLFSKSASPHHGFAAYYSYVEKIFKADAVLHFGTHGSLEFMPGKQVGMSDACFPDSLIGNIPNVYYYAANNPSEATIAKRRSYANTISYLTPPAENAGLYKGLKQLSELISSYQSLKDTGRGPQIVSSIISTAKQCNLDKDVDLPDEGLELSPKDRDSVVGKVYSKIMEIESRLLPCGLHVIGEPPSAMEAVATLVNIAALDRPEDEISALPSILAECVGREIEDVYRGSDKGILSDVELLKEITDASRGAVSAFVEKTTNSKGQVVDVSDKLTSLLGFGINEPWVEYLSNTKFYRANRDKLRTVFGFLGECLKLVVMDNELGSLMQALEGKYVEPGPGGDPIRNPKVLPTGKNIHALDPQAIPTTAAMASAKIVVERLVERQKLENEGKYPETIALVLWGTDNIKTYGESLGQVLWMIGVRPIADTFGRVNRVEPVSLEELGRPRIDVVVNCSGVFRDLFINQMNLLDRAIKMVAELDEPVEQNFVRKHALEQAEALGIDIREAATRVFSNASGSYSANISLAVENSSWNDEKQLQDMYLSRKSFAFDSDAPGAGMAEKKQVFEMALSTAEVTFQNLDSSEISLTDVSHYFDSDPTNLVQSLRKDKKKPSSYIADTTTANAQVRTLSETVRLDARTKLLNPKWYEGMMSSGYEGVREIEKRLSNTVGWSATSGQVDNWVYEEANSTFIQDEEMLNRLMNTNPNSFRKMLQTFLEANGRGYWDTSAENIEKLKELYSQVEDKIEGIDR
Test: SPR (Biacore T200, CM5 chip, protein immobilized by amine coupling), steady-state fit
Assay type: binding
Conditions: HBS-EP running buffer with EDTA, pH 7.4, 25 °C, 6-100 μM analyte; unreliable (authors attribute the low affinity to technical limits of SPR)

With `CC1=CC(=O)CC(C)(C)C1(O)/C=C/C(C)=C\C(=O)O` (stereo in doubt) [(+)-ABA] the Kd was 20 µM.
